Reference: patent publication US20250034151A1, “WEE1 INHIBITOR, PREPARATION THEREFOR, AND USE THEREOF” (JIANGSU TASLY DIYI PHARMACEUTICAL CO., LTD., priority 2022, published 2025)

Legend:
Wee1 protein = biological target: T1, Wee1 protein (Homo sapiens, UniProt P30291); test: Binding of compound to Wee1 protein and Tracer 178 by TR-FRET (Wee1 kinase inhibitory activity); conditions: 15 nM WEE1, 50 nM Tracer 178, read-out: IC50 (inhibitory activity against Wee1 kinase)
T1 construct: purchased Thermo Fisher PR7373A
T1 sequence (P30291 whole entry): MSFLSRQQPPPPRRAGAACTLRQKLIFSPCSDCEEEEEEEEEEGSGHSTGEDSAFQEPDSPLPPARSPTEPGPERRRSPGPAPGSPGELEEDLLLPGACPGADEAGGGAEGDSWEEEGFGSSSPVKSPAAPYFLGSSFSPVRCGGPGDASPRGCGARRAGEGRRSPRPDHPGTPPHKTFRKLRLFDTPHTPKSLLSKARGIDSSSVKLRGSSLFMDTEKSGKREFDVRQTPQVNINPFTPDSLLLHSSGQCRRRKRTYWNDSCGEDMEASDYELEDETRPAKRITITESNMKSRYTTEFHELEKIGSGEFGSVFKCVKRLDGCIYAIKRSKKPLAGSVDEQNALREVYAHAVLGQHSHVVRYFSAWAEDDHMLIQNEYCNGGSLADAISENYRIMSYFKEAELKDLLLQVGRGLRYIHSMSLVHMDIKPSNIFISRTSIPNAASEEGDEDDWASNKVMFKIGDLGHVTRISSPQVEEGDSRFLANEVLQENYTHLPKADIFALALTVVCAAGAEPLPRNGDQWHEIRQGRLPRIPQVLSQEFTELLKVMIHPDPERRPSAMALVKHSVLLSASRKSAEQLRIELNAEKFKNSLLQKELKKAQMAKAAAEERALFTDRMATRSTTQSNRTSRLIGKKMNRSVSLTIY

CYP2D6 = CYP2D6 (Homo sapiens, UniProt P10635); test: in vitro; conditions: CYP2D6 enzyme, pH 7.4, probe EOMCC (0.01 mM)
Chain of CYP2D6 (P10635 whole entry, species assumed): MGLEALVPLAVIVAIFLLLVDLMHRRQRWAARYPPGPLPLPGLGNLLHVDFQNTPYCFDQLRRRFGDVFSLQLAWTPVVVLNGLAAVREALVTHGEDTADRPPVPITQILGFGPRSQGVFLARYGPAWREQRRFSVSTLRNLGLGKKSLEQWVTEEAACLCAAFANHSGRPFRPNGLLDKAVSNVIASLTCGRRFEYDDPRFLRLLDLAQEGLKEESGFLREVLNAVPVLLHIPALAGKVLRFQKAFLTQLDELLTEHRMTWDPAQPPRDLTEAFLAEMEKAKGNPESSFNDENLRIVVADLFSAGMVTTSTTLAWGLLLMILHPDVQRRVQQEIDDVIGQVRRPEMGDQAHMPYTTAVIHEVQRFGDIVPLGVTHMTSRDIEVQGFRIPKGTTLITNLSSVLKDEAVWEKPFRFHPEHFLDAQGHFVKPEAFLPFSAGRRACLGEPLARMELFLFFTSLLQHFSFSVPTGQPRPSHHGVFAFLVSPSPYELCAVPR

CYP2C9 = CYP2C9 (Homo sapiens, UniProt P11712); test: in vitro; conditions: CYP2C9 enzyme, pH 7.4, probe BOMCC (0.01 mM)
Chain of CYP2C9 (P11712 whole entry, species assumed): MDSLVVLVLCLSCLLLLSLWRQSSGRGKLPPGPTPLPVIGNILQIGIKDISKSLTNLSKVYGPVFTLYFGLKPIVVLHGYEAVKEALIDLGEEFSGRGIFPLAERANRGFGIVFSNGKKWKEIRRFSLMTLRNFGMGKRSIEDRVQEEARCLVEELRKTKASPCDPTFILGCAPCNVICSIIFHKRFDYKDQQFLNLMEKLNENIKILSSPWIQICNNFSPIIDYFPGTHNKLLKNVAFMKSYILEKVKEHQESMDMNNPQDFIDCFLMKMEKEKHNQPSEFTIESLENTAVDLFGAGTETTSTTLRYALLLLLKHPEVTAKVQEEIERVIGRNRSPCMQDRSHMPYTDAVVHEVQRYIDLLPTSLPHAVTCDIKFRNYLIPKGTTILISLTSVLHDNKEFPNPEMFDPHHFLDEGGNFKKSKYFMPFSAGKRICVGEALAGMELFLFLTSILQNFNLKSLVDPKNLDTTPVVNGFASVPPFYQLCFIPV

| SMILES | IC50 (Wee1 protein) | inhibition at 30 min, 1 µM (CYP2D6) | inhibition at 30 min, 10 µM (CYP2D6) | inhibition at 30 min, 1 µM (CYP2C9) | inhibition at 30 min, 10 µM (CYP2C9) |
| --- | --- | --- | --- | --- | --- |
| C=CCn1c(=O)c2cnc(Nc3ccc(N4CC5CC(C4)N5C)cc3)nc2n1-c1cccc(C(C)(C)O)n1 [Compound 27] | 5 to 10 nM | – | – | – | – |
| C=CCn1c(=O)c2cnc(Nc3ccc(N4CCN(C)CC4)cc3)nc2n1-c1cccc(C(C)(C)O)n1 [AZD1775] | – | 3.4% | 1.5% | 15.4% | 6.4% |
